Columns and labels:
[1] = tested on: normal NK cells expanded with K562-aAPC; assay: percent inhibition of viability; higher = more inhibition; details: 72 h, IL-2 2.5 ng/mL
Method: (§1)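 Drug sensitivity and resistance testing on K562-aAPC-expanded normal NK cells: 5 concentrations (10-fold steps over a 10,000-fold range), 72 h at 37 °C, viability by CellTiter-Glo normalised to DMSO and benzethonium chloride controls; DSS from the fitted curve.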

DERL-7 (IL-2 2.5 ng/mL) [2] = assay: as above; details: 72 h
IMC-1 (IL-2 20 ng/mL) [3] = assay: as above; details: 72 h
KAI3 (IL-2 2.5 ng/mL) [4] = assay: as above; details: 72 h
KHYG-1 (IL-2 2.5 ng/mL) [5] = assay: as above; details: 72 h
NK-92 (IL-2 2.5 ng/mL) [6] = assay: as above; details: 72 h
NK-YS (IL-2 2.5 ng/mL) [7] = assay: as above; details: 72 h
NKL (IL-2 2.5 ng/mL) [8] = assay: as above; details: 72 h
SNK-6 (IL-2 2.5 ng/mL) [9] = assay: as above; details: 72 h
YT (IL-2 2.5 ng/mL) [10] = assay: as above; details: 72 h
[11] = tested on: normal primary NK cells, pool 1 (3 donors) (IL-2 2.5 ng/mL); assay: as above; details: 72 h
[12] = tested on: normal primary NK cells, pool 1 (3 donors), resting (IL-2 0 ng/mL); assay: as above; details: 72 h
[13] = tested on: normal primary NK cells, pool 2 (3 donors) (IL-2 2.5 ng/mL); assay: as above; details: 72 h
[14] = tested on: normal primary NK cells, pool 3 (3 donors) (IL-2 2.5 ng/mL); assay: as above; details: 72 h
[15] = tested on: normal NK cells expanded with K562-aAPC; assay: drug sensitivity score (DSS) (DSS units); higher = more sensitive; extreme values may be limits of the assay; details: 72 h; IL-2 2.5 ng/mL
Method: as §1

DERL-7 (IL-2 2.5 ng/mL) [16] = assay: as above; details: 72 h
IMC-1 (IL-2 20 ng/mL) [17] = assay: as above; details: 72 h
KAI3 (IL-2 2.5 ng/mL) [18] = assay: as above; details: 72 h
KHYG-1 (IL-2 2.5 ng/mL) [19] = assay: as above; details: 72 h
NK-92 (IL-2 2.5 ng/mL) [20] = assay: as above; details: 72 h
NK-YS (IL-2 2.5 ng/mL) [21] = assay: as above; details: 72 h
NKL (IL-2 2.5 ng/mL) [22] = assay: as above; details: 72 h
SNK-6 (IL-2 2.5 ng/mL) [23] = assay: as above; details: 72 h
YT (IL-2 2.5 ng/mL) [24] = assay: as above; details: 72 h
[25] = tested on: normal primary NK cells, pool 1 (3 donors) (IL-2 2.5 ng/mL); assay: as above; details: 72 h
[26] = tested on: normal primary NK cells, pool 1 (3 donors), resting (IL-2 0 ng/mL); assay: as above; details: 72 h
[27] = tested on: normal primary NK cells, pool 2 (3 donors) (IL-2 2.5 ng/mL); assay: as above; details: 72 h
[28] = tested on: normal primary NK cells, pool 3 (3 donors) (IL-2 2.5 ng/mL); assay: as above; details: 72 h

CO[C@@H](C(=O)N1Cc2[nH]nc(NC(=O)c3ccc(N4CCN(C)CC4)cc3)c2C1)c1ccccc1 [Danusertib] (max concentration tested 10000 nM)
percent inhibition of viability [%]
Details | 1 nM | 10 nM | 100 nM | 1000 nM | 10000 nM
DERL-7 (IL-2 2.5 ng/mL) [2] | 4.21 | 7.76 | 28.8 | 56.9 | 73.3
IMC-1 (IL-2 20 ng/mL) [3] | -7.01 | -4.49 | 6.37 | 93.6 | 99.5
KAI3 (IL-2 2.5 ng/mL) [4] | -6.41 | -1.03 | 23.9 | 37.9 | 69.3
KHYG-1 (IL-2 2.5 ng/mL) [5] | -6.8 | -6.2 | 5.51 | 66.7 | 86.5
NK-92 (IL-2 2.5 ng/mL) [6] | 4 | 8.37 | 15.1 | 45.9 | 64.6
NK-YS (IL-2 2.5 ng/mL) [7] | -2.39 | -4.33 | 9.93 | 70.3 | 61.7
NKL (IL-2 2.5 ng/mL) [8] | -10.8 | -14.4 | -11 | 20.2 | 64.9
SNK-6 (IL-2 2.5 ng/mL) [9] | -10.1 | -21.1 | -2.34 | 66.7 | 72.5
YT (IL-2 2.5 ng/mL) [10] | -0.26 | -0.92 | 21.1 | 27.8 | 44.9
[1] | 0.09 | -2.41 | -1.99 | 45 | 66.8
[11] | -7.78 | 14.4 | 8.28 | 17.6 | 41.4
[12] | 2.29 | 22.1 | 18.6 | 2.51 | -6.72
[13] | -7.19 | 11.2 | 11.8 | 13.2 | 39.9
[14] | -3.44 | 7.87 | 4.81 | 5.78 | 23.5

Details | drug sensitivity score
DERL-7 (IL-2 2.5 ng/mL) [16] | 14.3
IMC-1 (IL-2 20 ng/mL) [17] | 17.9
KAI3 (IL-2 2.5 ng/mL) [18] | 10
KHYG-1 (IL-2 2.5 ng/mL) [19] | 13.2
NK-92 (IL-2 2.5 ng/mL) [20] | 10.4
NK-YS (IL-2 2.5 ng/mL) [21] | 14.6
NKL (IL-2 2.5 ng/mL) [22] | 6.51
SNK-6 (IL-2 2.5 ng/mL) [23] | 12.2
YT (IL-2 2.5 ng/mL) [24] | 7.27
[15] | 8.98
[25] | 4.29
[26] | 0
[27] | 3.85
[28] | 1.46

C[C@@H]1C[C@H]2[C@@H]3CCC4=CC(=O)C=C[C@]4(C)[C@@]3(F)[C@@H](O)C[C@]2(C)[C@@]1(O)C(=O)CO [Dexamethasone] (max concentration tested 10000 nM)
percent inhibition of viability [%]
Details | 1 nM | 10 nM | 100 nM | 1000 nM | 10000 nM
DERL-7 (IL-2 2.5 ng/mL) [2] | -2.49 | 63.1 | 100 | 101 | 101
IMC-1 (IL-2 20 ng/mL) [3] | -2.17 | -4.52 | -10.6 | -12.7 | -2.61
KAI3 (IL-2 2.5 ng/mL) [4] | -8.83 | -13.5 | -3.07 | -3.87 | 31.2
KHYG-1 (IL-2 2.5 ng/mL) [5] | -1.02 | 14.1 | 39.9 | 50.3 | 69.1
NK-92 (IL-2 2.5 ng/mL) [6] | -14.3 | -20.1 | -19.3 | -2.77 | 5.06
NK-YS (IL-2 2.5 ng/mL) [7] | -5.2 | -1.29 | 1.38 | 4.74 | 18.8
NKL (IL-2 2.5 ng/mL) [8] | 12.3 | 38.1 | 57.3 | 64.1 | 67.1
SNK-6 (IL-2 2.5 ng/mL) [9] | -0.75 | -7.56 | -4.28 | -3.37 | 8.99
YT (IL-2 2.5 ng/mL) [10] | -0.83 | 11.3 | 22.4 | 36.4 | 45.4
[1] | 1.98 | 35.4 | 61.5 | 68.6 | 77.8
[11] | 2.6 | 42 | 68.9 | 80.5 | 86.6
[12] | 8.34 | 65.5 | 83.1 | 84.5 | 86.9
[13] | 2.03 | 37.3 | 63.2 | 69.1 | 74.5
[14] | -8.83 | 19.5 | 43.5 | 50.7 | 58

Details | drug sensitivity score
DERL-7 (IL-2 2.5 ng/mL) [16] | 37.9
IMC-1 (IL-2 20 ng/mL) [17] | 0
KAI3 (IL-2 2.5 ng/mL) [18] | 1.14
KHYG-1 (IL-2 2.5 ng/mL) [19] | 15.6
NK-92 (IL-2 2.5 ng/mL) [20] | 0
NK-YS (IL-2 2.5 ng/mL) [21] | 1.07
NKL (IL-2 2.5 ng/mL) [22] | 24.6
SNK-6 (IL-2 2.5 ng/mL) [23] | 0
YT (IL-2 2.5 ng/mL) [24] | 9.59
[15] | 25.3
[25] | 28.9
[26] | 35.4
[27] | 26
[28] | 17.3

CCc1cnn2c(NCc3ccc[n+]([O-])c3)cc(N3CCCC[C@H]3CCO)nc12 [Dinaciclib] (max concentration tested 1000 nM)
percent inhibition of viability [%]
Details | 0.1 nM | 1 nM | 10 nM | 100 nM | 1000 nM
DERL-7 (IL-2 2.5 ng/mL) [2] | 3.44 | 0.2 | 31.4 | 100 | 101
IMC-1 (IL-2 20 ng/mL) [3] | -1.04 | -1.9 | 44 | 99.7 | 102
KAI3 (IL-2 2.5 ng/mL) [4] | 5.48 | 7.7 | 54.5 | 108 | 110
KHYG-1 (IL-2 2.5 ng/mL) [5] | -3.45 | -3.48 | 42.5 | 109 | 112
NK-92 (IL-2 2.5 ng/mL) [6] | -2.1 | 2.09 | 67.9 | 108 | 111
NK-YS (IL-2 2.5 ng/mL) [7] | -6.76 | -1.49 | 87.6 | 104 | 109
NKL (IL-2 2.5 ng/mL) [8] | 4.95 | 3.07 | 88.7 | 109 | 112
SNK-6 (IL-2 2.5 ng/mL) [9] | -7.12 | -37 | 81.4 | 47.2 | 48.2
YT (IL-2 2.5 ng/mL) [10] | -2.44 | 2.09 | 93.8 | 108 | 111
[1] | -4.8 | -2.24 | 30.3 | 101 | 102
[11] | -4.8 | 3.36 | 45.1 | 98.6 | 98.7
[12] | -4.86 | 1 | 21.3 | 91.6 | 92.6
[13] | -6.55 | 2.06 | 90.3 | 97.1 | 94.6
[14] | -4.86 | 2.55 | 72 | 99.3 | 100

Details | drug sensitivity score
DERL-7 (IL-2 2.5 ng/mL) [16] | 22.5
IMC-1 (IL-2 20 ng/mL) [17] | 23.7
KAI3 (IL-2 2.5 ng/mL) [18] | 24.6
KHYG-1 (IL-2 2.5 ng/mL) [19] | 23.6
NK-92 (IL-2 2.5 ng/mL) [20] | 25.9
NK-YS (IL-2 2.5 ng/mL) [21] | 28.3
NKL (IL-2 2.5 ng/mL) [22] | 28.8
SNK-6 (IL-2 2.5 ng/mL) [23] | 23.7
YT (IL-2 2.5 ng/mL) [24] | 29.8
[15] | 22.4
[25] | 23.2
[26] | 20
[27] | 28.8
[28] | 26.6

Source: the supplement of paper PMC5908809
